According to patent US7722876B2 (priority 2002, dated 2010):
Like-named read-outs stand apart in the source and are kept apart here. Where a SMILES comes first, the peptide text is derived from it.

What was measured:
[1] = test system: C.albicans UP10 cells; conditions: 6 h
[2] = test system: LLC-MK2 rhesus monkey kidney cells
[3] = test system: fluconazole-resistant (AIDS 68) C.albicans; type: in vivo, Candida albicans; conditions: rats, 100 μg fluconazole at 1, 24, 48 h

## CC(C)[C@H](NC(=O)CNC(=O)[C@H](Cc1ccc(O)cc1)NC(=O)CN)C(=O)N[C@@H](CC(N)=O)C(N)=O [Heavy chain CDR-1] (H-GYGVN-NH2; N-terminus and C-terminus assumed)
[1]
  IC50: 267 nM

## CC[C@H](C)[C@H](NC(=O)[C@@H](N)CCSC)C(=O)N[C@@H](Cc1c[nH]c2ccccc12)C(=O)NCC(=O)N[C@@H](CC(=O)O)C(=O)NCC(=O)N[C@@H](CO)C(=O)N[C@H](C(=O)N[C@@H](CC(=O)O)C(=O)N[C@@H](Cc1ccc(O)cc1)C(=O)N[C@@H](CC(N)=O)C(=O)N[C@@H](CO)C(=O)N[C@@H](C)C(=O)N[C@@H](CC(C)C)C(N)=O)[C@@H](C)O [Heavy chain CDR-2] (H-MIWGDGSTDYNSAL-NH2; N-terminus and C-terminus assumed)
[1]
  IC50: 117 nM

## CSCC[C@H](NC(=O)[C@H](C)NC(=O)[C@H](Cc1ccc(O)cc1)NC(=O)[C@@H](N)CC(C)C)C(N)=O [Heavy chain CDR-3] (H-LYAM-NH2; N-terminus and C-terminus assumed)
[1]
  IC50: 109 nM

## CSCC[C@H](NC(=O)[C@@H](NC(=O)[C@@H](NC(=O)[C@H](CCCCN)NC(=O)[C@H](C)N)C(C)C)[C@@H](C)O)C(=O)N[C@H](C(=O)N[C@@H](CS)C(=O)N[C@@H](CO)C(=O)N[C@@H](C)C(=O)N[C@@H](CO)C(N)=O)[C@@H](C)O [KM] (H-AKVTMTCSAS-NH2)
[2]
  toxic effects on cell viability: no toxic effects

## CSCC[C@H](NC(=O)[C@H](Cc1ccc(O)cc1)NC(=O)[C@H](CO)NC(=O)[C@@H](NC(=O)[C@H](CO)NC(=O)[C@H](CO)NC(=O)[C@H](CO)NC(=O)[C@H](C)NC(=O)[C@@H](N)CO)C(C)C)C(=O)N[C@@H](Cc1ccc(O)cc1)C(N)=O [Light chain CDR-1] (H-SASSSVSYMY-NH2; N-terminus and C-terminus assumed)
[1]
  IC50: 692 nM

## CC(C)C[C@H](NC(=O)[C@H](CC(N)=O)NC(=O)[C@H](CO)NC(=O)[C@@H](NC(=O)[C@@H](N)CC(C)C)[C@@H](C)O)C(=O)N[C@@H](C)C(=O)N[C@@H](CO)C(N)=O [Light chain CDR-2] (H-LTSNLAS-NH2; N-terminus and C-terminus assumed)
[1]
  IC50: 234 nM

## NC(=O)CC[C@H](NC(=O)[C@@H](N)CCC(N)=O)C(=O)N[C@@H](Cc1c[nH]c2ccccc12)C(=O)N[C@@H](CO)C(=O)N[C@@H](CO)C(=O)N[C@@H](CC(N)=O)C(=O)N1CCC[C@H]1C(=O)N[C@@H](Cc1ccc(O)cc1)C(N)=O [Light chain CDR-3] (H-QQWSSNPY-NH2; N-terminus and C-terminus assumed)
[1]
  IC50: 200 nM

## CSCC[C@H](NC(=O)[C@@H](NC(=O)[C@@H](NC(=O)[C@H](CCCCN)NC(=O)[C@H](C)N)C(C)C)[C@@H](C)O)C(=O)N[C@H](C(=O)N[C@@H](CS)C(=O)N[C@@H](CO)C(=O)N[C@@H](C)C(N)=O)[C@@H](C)O [SEQ ID 14] (H-AKVTMTCSA-NH2; N-terminus and C-terminus assumed)
[1]
  IC50: 50000 nM

## CSCC[C@H](NC(=O)[C@@H](NC(=O)[C@@H](NC(=O)[C@H](CCCCN)NC(=O)[C@H](C)N)C(C)C)[C@@H](C)O)C(=O)N[C@H](C(=O)N[C@@H](CS)C(=O)N[C@@H](CO)C(N)=O)[C@@H](C)O [SEQ ID 15] (H-AKVTMTCS-NH2; N-terminus and C-terminus assumed)
[1]
  IC50: 23000 nM

## CSCC[C@H](NC(=O)[C@@H](NC(=O)[C@@H](NC(=O)[C@H](CCCCN)NC(=O)[C@H](C)N)C(C)C)[C@@H](C)O)C(=O)N[C@H](C(=O)N[C@@H](CS)C(N)=O)[C@@H](C)O [SEQ ID 16] (H-AKVTMTC-NH2; N-terminus and C-terminus assumed)
[1]
  IC50: 600 nM

## CSCC[C@H](NC(=O)[C@@H](NC(=O)[C@@H](NC(=O)[C@H](CCCCN)NC(=O)[C@H](C)N)C(C)C)[C@@H](C)O)C(=O)N[C@H](C(N)=O)[C@@H](C)O [SEQ ID 17] (H-AKVTMT-NH2; N-terminus and C-terminus assumed)
[1]
  IC50: 730000 nM

## CSCC[C@H](NC(=O)[C@@H](NC(=O)[C@@H](NC(=O)[C@H](CCCCN)NC(=O)[C@H](C)N)C(C)C)[C@@H](C)O)C(N)=O [SEQ ID 18] (H-AKVTM-NH2; N-terminus and C-terminus assumed)
[1]
  IC50: 25000 nM

## CC(C)[C@H](NC(=O)[C@H](CCCCN)NC(=O)[C@H](C)N)C(=O)N[C@H](C(N)=O)[C@@H](C)O [SEQ ID 19] (H-AKVT-NH2; N-terminus and C-terminus assumed)
[1]
  IC50: 710000 nM

## CC(C)[C@H](NC(=O)[C@H](CCCCN)NC(=O)[C@H](C)N)C(N)=O [SEQ ID 20] (H-Ala-Lys-Val-NH2; N-terminus and C-terminus assumed)
[1]
  IC50: 10000 nM

## OC(Cn1cncn1)(Cn1cncn1)c1ccc(F)cc1F [fluconazole]
[3]; day 0
  C. albicans vaginal CFU (×10^3) (±SD): >100 ×10^3
[3]; day 7
  C. albicans vaginal CFU (×10^3) (±SD): 64 ± 6 ×10^3
[3]; day 14
  C. albicans vaginal CFU (×10^3) (±SD): 48 ± 3 ×10^3
[3]; day 28
  C. albicans vaginal CFU (×10^3) (±SD): 12 ± 4 ×10^3
